Measured values: article PMC7290210 (Infection, Genetics and Evolution, 2020)

Experiments:
[1] = molecular target: S-RBD-ACE2 protein complex (Homo sapiens, UniProt Q9BYF1); format: binding, SARS-CoV-2
SARS-CoV2 S2 ECD = SARS-CoV2 S2 ECD (Severe acute respiratory syndrome coronavirus 2, UniProt P0DTC2); experiment: biochemical; format: binding, SARS-CoV-2
human ACE2 = human ACE2 (Homo sapiens, UniProt Q9BYF1); experiment: Surface plasmon resonance assay, human ACE2 chip; format: binding; details: SPR, human ACE2 extracellular domain, pH 4.5, 25 °C
SARS-CoV-2 S1 + S2 ECD = SARS-CoV-2 S1 + S2 ECD (Severe acute respiratory syndrome coronavirus 2, UniProt P0DTC2); experiment: biochemical; format: binding

human ACE2, sequence (Q9BYF1 18-740): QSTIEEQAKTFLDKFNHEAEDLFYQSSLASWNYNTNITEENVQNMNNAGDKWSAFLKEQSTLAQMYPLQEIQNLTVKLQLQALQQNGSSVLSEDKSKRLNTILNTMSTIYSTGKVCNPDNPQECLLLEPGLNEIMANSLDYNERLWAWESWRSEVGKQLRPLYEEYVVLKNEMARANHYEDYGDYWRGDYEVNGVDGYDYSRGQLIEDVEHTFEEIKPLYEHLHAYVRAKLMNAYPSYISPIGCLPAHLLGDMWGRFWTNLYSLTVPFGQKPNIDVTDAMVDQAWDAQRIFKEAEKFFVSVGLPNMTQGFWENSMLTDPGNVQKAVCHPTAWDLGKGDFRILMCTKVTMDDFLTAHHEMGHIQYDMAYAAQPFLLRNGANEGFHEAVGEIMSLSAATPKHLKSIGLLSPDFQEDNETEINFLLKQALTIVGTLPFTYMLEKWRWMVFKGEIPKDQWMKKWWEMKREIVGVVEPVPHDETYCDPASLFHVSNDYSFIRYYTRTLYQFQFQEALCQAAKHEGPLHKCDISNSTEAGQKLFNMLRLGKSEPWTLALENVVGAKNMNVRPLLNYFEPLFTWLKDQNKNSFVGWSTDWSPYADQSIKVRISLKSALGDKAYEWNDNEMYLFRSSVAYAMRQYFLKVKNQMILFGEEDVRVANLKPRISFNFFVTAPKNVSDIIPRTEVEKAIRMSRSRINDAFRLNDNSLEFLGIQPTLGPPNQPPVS
S-RBD-ACE2 protein complex, sequence (Q9BYF1 18-740, one chain of several): as the sequence (Q9BYF1 18-740) above

| Molecule | Tm Mean of RBD-ACE2 complex [1] [°C] | Kd (human ACE2) [µM] | further results |
| --- | --- | --- | --- |
| [Ca+2].[Cl-].[Cl-] [CaCl2] | 51.6 | – | – |
| Glycyrrhizic acid | – | – | Rmax (SARS-CoV2 S2 ECD; pH 5.5): 623.7 RU |
| CC1(C)[C@@H](O[C@H]2O[C@H](C(=O)O)[C@@H](O)[C@H](O)[C@H]2O[C@@H]2O[C@H](C(=O)O)[C@@H](O)[C@H](O)[C@H]2O)CC[C@]2(C)[C@H]3C(=O)C=C4[C@@H]5C[C@@](C)(C(=O)O)CC[C@]5(C)CC[C@@]4(C)[C@]3(C)CC[C@@H]12 [Glycyrrhizin, glycyrrhizin] | – | 1800 | Rmax (human ACE2; listed as glycyrrhizin): 499.4 RU |
| [Cl-].[Cl-].[Mg+2] [MgCl2] | 51.6 | – | – |
| CC1(C)[C@@H](O[C@H]2O[C@H](C(=O)O)[C@@H](O)[C@H](O)[C@H]2O[C@@H]2O[C@H](C(=O)O)[C@@H](O)[C@H](O)[C@H]2O)CC[C@]2(C)[C@H]3C(=O)C=C4[C@@H]5C[C@@](C)(C(=O)O)CC[C@]5(C)CC[C@@]4(C)[C@]3(C)CC[C@@H]12 [Glycyrrhizate, glycyrrhizate] | – | 4900 | Rmax (human ACE2; listed as glycyrrhizate): 557.8 RU |
| CC1=NN(c2ccc(C)c(C)c2)C(=O)/C1=N\Nc1cccc(-c2cccc(C(=O)O)c2)c1O [Eltrombopag] | 49.9 | 0.828 | Kd (SARS-CoV2 S2 ECD; KD): 2.17 µM; Rmax (human ACE2): 21.95 RU; Kd (SARS-CoV-2 S1 + S2 ECD): 2.01 µM |
